{"source": "patent US8541645B2", "about": "“Animal model for cigarette-smoke-induced atherosclerosis and related methods” (University of Calcutta, priority 2009, dated 2013)", "key": {"scurvy": {"tested_on": "scurvy", "conditions": "dietary; cited from earlier work"}, "[1]": {"tested_on": "CS-induced atherosclerosis in guinea pig aorta", "assay": "Cigarette-smoke-induced atherosclerosis in guinea pig aorta (H&E and Oil red O staining of aortic sections)", "type": "in vivo", "conditions": "dietary supplementation of vitamin C 5 mg/day in addition to CS exposure; aortic sections stained with H&E or Oil red O (FIG. 3)", "description": "Two to six, preferably three to four, month old male guinea pigs weighing between about 350 to about 450 grams (g) are used. All animals are maintained on a vitamin C-free diet for 7 days in order to minimize the in vivo levels of vitamin C in plasma and tissues. After 7 days of vitamin C deprivation, the guinea pigs are given a dietary supplementation of about 1 milligram (mg) of vitamin C per day (1 mg vitamin C/day) to prevent the onset of scurvy. (It is known that a dose of 0.8 mg vitamin C/day is sufficient to maintain guinea pigs without the development of scurvy.) Thereafter, the guinea pigs are subjected to cigarette smoke exposure (3 cigarettes per animal per day (3 cigarettes/animal/day) with 2 puffs per cigarette (2 puffs/cigarette)). Two puffs per cigarette indicate that the burning of a cigarette is divided into two halves. In each half, animals are exposed to cigarette smoke for a period of 1 minute (min.). There is an interval of 1 min. between these two halves. During this interval, animals are exposed to normal atmospheric air. Likewise, 3 puffs/cigarette would indicate that the burning of a cigarette is divided into three approximately equal parts with two intervals in between. […]"}}, "data": [{"smiles": "O=C1O[C@H]([C@@H](O)CO)C(O)=C1O", "note": "[vitamin C, L-ascorbic acid]", "values": [{"measurement": "dose sufficient to maintain guinea pigs without the development of scurvy", "setting": "scurvy", "value": 0.8, "unit": "mg vitamin C/day"}, {"measurement": "effect on CS-induced atherogenic changes in guinea pig aorta", "setting": "[1]", "value": "prevents CS-induced atherogenic changes"}]}]}
